Patent publication US20220163532A1, “NUCLEAR-DERIVED EXOSOMES AND METHODS OF USE THEREOF” (Board of Regents, The University of Texas System, priority 2019, published 2022)

Key:
Assay type in all cases: cell-based, human
ovarian cancer cells = assay: Nuclear proteins in exosomes from drug-treated ovarian cancer cells (Western blot); details: topotecan 10 nM or olaparib 20 μM
Description: (§1) Isolation of exosomes. The isolation method for exosomes that was used in this study followed the standard methods of the International Society of Extracellular Vesicles (Witwer et al., 2013). Cell lines described above were grown in the corresponding medium described above until 60 to 70% confluence was achieved. Cells were then washed twice with phosphate-buffered saline (PBS) and grown in corresponding medium containing 1% exosome-free FBS (EXO-FBS-250A-1, System Biosciences) plus 0.1% gentamicin for 48 hours. For exosome isolation, the harvested medium underwent serial centrifugation. First, the medium was spun down at 500g for 10 min to pellet any floating cells. Next, the supernatant was collected and spun down at 2000g for 30 min to pellet any residual cell debris. The resulting supernatant was then filtered through a 0.22-μm filter (SCGPUO5RE and SLGP033RS, Millipore-Sigma) to remove any remaining large vesicles. After filtration, the medium was spun down at 40,000 rpm for 2 hours at 4° C. in an ultracentrifuge (Optima XE, Beckman Coulter) with a Ti 45 fixed-angle rotor (339160, Beckman Coulter). […] Exosome concentration and quantity were determined using NTA with a NanoSight NS300 instrument (Malvern Panalytical).
Western blotting. […] Protein concentration was determined using the Micro BCA Protein Assay Kit (23235, Thermo Fisher Scientific) according to the manufacturer's protocol. […]

[1] = system: OVCAR-5 and OVCAR-8 cells; assay: MN quantification in ovarian cancer cells treated with genotoxic drugs (IF, Lamin A/C); details: topotecan 10 nM or olaparib 20 μM, vs DMSO
Description: IF experiments and MN quantification. Cells were plated at a density of 5×10^4 cells on sterile, 0.17-mm-thick coverslips (12-548-A, Thermo Fisher Scientific) placed at the bottom of six-well plates. The next day, cells were treated for 24 hours with either vehicle control dimethyl sulfoxide (DMSO; 1:1000 dilution; D2650, Sigma-Aldrich), 20 μM olaparib (O-9201, LC Laboratories), or 10 nM topotecan (T2705-50MG, Sigma-Aldrich). After 24 hours, the cells were washed with PBS and refed with the appropriate cell culture medium to grow for another 48 hours, for a total time of 72 hours after initial plating on the coverslips.
The drug-treated cells were first washed three times with PBS, fixed with 4% paraformaldehyde (PFA; 50-980-487, Thermo Fisher Scientific) diluted in PBS, and incubated at RT for 15 min with light rocking. […] Last, cells on coverslips were then washed four times with PBS and mounted on slides using ProLong Diamond Antifade Mountant (P36961, Thermo Fisher Scientific) and imaged with a Leica fluorescence microscope (Leica DM4000 M LED; Leica Microsystems) or an Andor Revolution XDi WD Spinning Disk Confocal microscope. For MN quantification, the number of MN in each 40× field was counted using 10 fields per sample. […]

[2] = system: OVCAR-5 and OVCAR-8 cells; assay: DNA-positive exosomes (nExo) from drug-treated ovarian cancer cells by imaging flow cytometry; details: topotecan 10 nM or olaparib 20 μM, parental cells treated 48 hours, vs DMSO
Description: as §1, with “vesicles.” for “vesicles. After filtration, the medium was spun down at 40,000 rpm for 2 hours at 4° C. in an ultracentrifuge (Optima XE, Beckman Coulter) with a Ti 45 fixed-angle rotor (339160, Beckman Coulter).”
Exosome staining for imaging flow cytometry and analysis. For quantitative analysis and imaging flow cytometry of exosomes, the method described by Erdbrugger et al. (2014) using an Amnis ImageStreamX MarkII analyzer was adapted. […]

O=C(c1cc(Cc2n[nH]c(=O)c3ccccc23)ccc1F)N1CCN(C(=O)C2CC2)CC1 [olaparib]
population of exosomes containing nuclear proteins (ovarian cancer cells): increased | number of MN [1]: increased significantly | population of exosomes containing gDNA (proportion of nExo secreted) [2]: increased
